Results as given in patent US10786476B2, “Combination therapy” (IMBRIA PHARMACEUTICALS, INC., priority 2016, dated 2020).
Entries after “also recorded” stand apart in the source; their conditions may differ. Like-named read-outs stand apart in the source and are kept apart here.

Test: Viscosity / flow property test (flow out of a vial, be swirled, direct drinking)
Type: physicochemical
Description: Properties of provided compounds and compositions can be readily tested, including using a number of methods widely known and practiced in the art, in accordance with the present disclosure. For example, viscosity and/or taste of provided compounds can be readily tested. In some embodiments, viscosity was assessed by testing whether a provided compound could readily flow out of a vial or be swirled. In some embodiments, viscosity was assessed by testing whether a provided compound could be administered by direct drinking by a subject. In some embodiments, taste was assessed by testing whether a provided compound could be administered by direct drinking by a subject.

Compound	flow property for formulation	viscosity compared with glycerol (at room temperature)	viscosity compared with glycerol (temperature not stated)	flow property for formulation (listed as 1-29)
CCCCCCCC(=O)OCC(COC(=O)CCC(=O)OCC(COC(=O)CCCCCCC)OC(=O)CCCCCCC)OC(=O)CCCCCCC (stereo not shown) [Compound I-30, bis (2,3-bis(octanoyloxy)propyl) succinate]	surprisingly good; also recorded: good flow property for formulation	lower viscosity than glycerol	lower viscosity than glycerol	
CCCC(=O)OCC(COC(=O)CCC(=O)OCC(COC(=O)CCC)OC(=O)CCC)OC(=O)CCC (stereo not shown) [Compound I-29, succinate diglycerol tetra-butyric acid]	surprisingly good	lower viscosity than glycerol	lower viscosity than glycerol	good flow property for formulation
